Test results from ChEMBL document CHEMBL1140349, “A new simple and high-yield synthesis of suberoylanilide hydroxamic acid and its inhibitory effect alone or in combination with retinoids on proliferation of human prostate cancer cells” (J Med Chem, 2005).

Assays:
LNCaP [1] = assay: Concentration required to inhibit growth of human LNCaP prostate cancer cells; assay type: functional
LNCaP [2] = assay: Concentration required to inhibit human LNCaP prostate carcinoma cells; assay type: functional, cell-based

IC50 (LNCaP [2]): 5.5 µM
SMILES: CC1=C(/C=C/C(C)=C/C=C/C(C)=C/C(=O)Nc2ccc(O)cc2)C(C)(C)CCC1n1ccnc1 (configuration not stated)
Growth inhibition (LNCaP [1]): 5 µM
